Drawing on US7964613B2 (Asahi Kasei Pharma Corporation, priority 2007, dated 2011), this text covers inhibition in vivo and IC50 for 27 compounds.

In assay [1] the test system is rabbit normal intraocular pressure. The assay can be described thus: Intraocular pressure reducing action. It is filed as in vivo, Japanese white rabbit. The conditions noted are these: Oryctolagus cuniculus, topical; 3 mM aqueous solution, 50 μl to the left eye; max IOP reduction (2, 4, 6 hours) / value immediately before administration; read-out: intraocular pressure reducing degree. The essentials:
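Japanese white rabbits (~2 kg) under topical anaesthesia received 50 μl of a 3 mM aqueous test solution in the left eye, right eye untreated. IOP read by tonometer before and at 2, 4, 6 h; maximal left–right difference divided by pre-dose IOP ×100 gives % reduction.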

Assay [2] has as its target T1, human ROCK1 (Homo sapiens, UniProt Q13464).
T1 construct: His tag (N); host or cells: insect cells (Sf9)
The assay can be described thus: Measurement of Rho kinase inhibitory activity (ELISA of MBS phosphorylation). It is filed as biochemical. The conditions noted are these: human ROCK1, MBS substrate, 100 μM ATP, 30° C. for 10 minutes. As to the method:
In this test, human ROCK1 was used as Rho kinase, MBS (myosin binding subunit, subunit constituting myosin phosphatase) was used as the substrate of Rho kinase, and an anti-phosphorylated MBS antibody was used for detection of phosphorylation. The activity for inhibiting Rho kinase was determined by measuring phosphorylation of MBS by the Rho kinase by ELISA in the presence of an appropriately diluted test compound. As the Rho kinase used, a recombinant protein (N-terminal His-tagged recombinant human ROCK1 residues (1Met-[…])) was used, which was produced in insect cells (Sf9) using a sequence (1-727), of which activity was confirmed in the paper of Ishizaki et al. (Ishizaki, T. et al., FEBS Letters, 404, pp 118-124, 1997), based on the sequence of human ROCK1 (p 160 ROCK) described in the report of Ishizaki et al. (Ishizaki, T. et al., EMBO J., 15, pp 1885-1893, 1996). Further, as the MBS protein and anti-phosphorylated MBS antibody, those prepared according to the method described in the paper of Ito et al. (Ito, K et al., J. Physiol., 546, pp 823-836, 2003) were used.
A solution of MBS (Asahi Kasei Pharma, lot No, 040814n7-10) diluted with PBS to an appropriate concentration was added to an ELISA plate (Maxisorp, Nunc), and left, stand overnight at 4° C., and then the wells were washed twice with a washing solution (WB, washing buffer, 0.1% Tween 20/PBS). To the wells were added 1% bovine serum albumin (Sigma)/PBS, and left for 1 to 3 hours, and then the wells were washed 5 times with WB to prepare a substrate-immobilized plate. Onto this plate, a reaction mixture (5 mM MgSO4/0.1 M NaCl/20 mM HEPES (pH 7.5)/100 μM ATP/5 mM DTT), a test compound, and appropriately diluted human ROCK1 (Asahi Kasei Pharma, lot No, 030126.120-22) were added, and then reacted at 30° C. for 10 minutes. Then, 0.2 M EDTA (pH 7.5) was added to terminate the reaction, and the wells were washed 5 times with WB. A rabbit anti-phosphorylated MBS antibody solution (Asahi Kasei Pharma, lot No, 122676431) diluted 10,000 times with WB containing 1% bovine serum albumin was added to the wells, and after the reaction for 1 hour, the wells were washed 5 times with WB. Goat anti-rabbit IgG-HRP (Zymed) diluted 1,000 times with WB containing 1% bovine serum albumin was added to the wells as the secondary detection antibody and the mixture was reacted for 1 hour, and then the wells were washed 5 times with WB. An OPD (o-phenylenediamine) solution (1 mg/ml OPD, Sigma), 5.1 g/l of citric acid monohydrate, and 18.4 g/l of Na2HPO4.12H2O were added to the wells to develop color, […] was added 5 minutes later to terminate the color development, and absorbance was measured at 490 nm.
The inhibition ratio was calculated as follows. Inhibition ratio(%)=[…]
Further, the inhibition ratio was calculated with changing the concentration of the test compound, and a compound concentration providing an inhibition ratio of 50% was obtained as IC50.

One may read the IC50 as the midpoint of a concentration-inhibition curve. Read a high IC50 as weaker potency.

T1 sequence (Q13464 1-727): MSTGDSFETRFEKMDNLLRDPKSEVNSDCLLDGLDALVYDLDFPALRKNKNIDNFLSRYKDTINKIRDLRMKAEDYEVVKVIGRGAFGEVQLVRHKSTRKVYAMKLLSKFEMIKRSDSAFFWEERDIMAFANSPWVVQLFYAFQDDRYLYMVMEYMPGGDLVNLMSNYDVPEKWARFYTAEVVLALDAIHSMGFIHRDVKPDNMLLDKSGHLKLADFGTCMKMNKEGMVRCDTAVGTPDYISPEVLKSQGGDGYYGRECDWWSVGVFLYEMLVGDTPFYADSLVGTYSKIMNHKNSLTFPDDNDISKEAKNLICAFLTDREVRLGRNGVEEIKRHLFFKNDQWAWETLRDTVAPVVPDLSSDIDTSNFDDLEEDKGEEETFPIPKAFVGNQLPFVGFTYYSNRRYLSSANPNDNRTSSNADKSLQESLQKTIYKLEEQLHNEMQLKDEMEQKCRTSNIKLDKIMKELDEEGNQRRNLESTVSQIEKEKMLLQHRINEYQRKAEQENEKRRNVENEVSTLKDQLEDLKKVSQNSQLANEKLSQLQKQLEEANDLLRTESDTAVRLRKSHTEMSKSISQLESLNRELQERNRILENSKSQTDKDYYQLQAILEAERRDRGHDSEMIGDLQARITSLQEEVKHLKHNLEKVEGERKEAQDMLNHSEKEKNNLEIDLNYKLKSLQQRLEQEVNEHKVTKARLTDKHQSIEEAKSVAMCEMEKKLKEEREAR

As for `CCc1cncc2cccc(S(=O)(=O)N3CC[C@H](N)C3)c12` [Example 23-1, (S)-3-Amino-1-(4-ethyl-5-isoquinolinesulfonyl)pyrrolidine], the inhibition in vivo at 3000 µM in assay [1] is 10 to 20%. In assay [2], this compound yielded a concentration for half-maximal inhibition (IC50) of under 1000 nM.

As for `O=C(CCN1CCNCC1)N[C@H]1CCN(S(=O)(=O)c2cccc3cncc(Cl)c23)C1` [Example 83, (S)-3-[3-(piperazin-1-yl)propionyl]amino-1-(4-chloro-5-isoquinolinesulfonyl)pyrrolidine], in assay [1], the inhibition in vivo at 3000 µM lay in the range of 10 to 20%. The compound further displayed an IC50 in assay [2] of 1000 to 3000 nM.

Take `O=S(=O)(c1cccc2cncc(Cl)c12)N1CC[C@H](NCc2ccc3c(c2)OCCO3)C1` [Example 19-40]: in assay [1], the inhibition in vivo at 3000 µM is 5 to 10%. Besides, in assay [2], the IC50 is under 1000 nM.

For the compound `Cc1cncc2cccc(S(=O)(=O)N3CC[C@@H](N)C3)c12` [Example 8-2, (R)-3-Amino-1-(4-methyl-5-isoquinolinesulfonyl)pyrrolidine], the inhibition in vivo at 3000 µM in assay [1] is at least 20%. In addition, in assay [2], the 50% inhibitory concentration (IC50) is under 1000 nM.

As to `O=S(=O)(c1cccc2c(O)ncc(Cl)c12)N1CC[C@H](NC2CCOCC2)C1` [Example 64-1, (S)-3-(4-Tetrahydropyranyl)amino-1-(1-hydroxy-4-chloro-5-isoquinolinesulfonyl)pyrrolidine], the inhibition in vivo at 3000 µM in assay [1] was in the range of 10 to 20%. The compound further had an IC50 in assay [2] of under 1000 nM.

Take `O=C(Cn1cnnn1)N[C@H]1CCN(S(=O)(=O)c2cccc3cncc(Cl)c23)C1` [Example 85, (S)-3-[2-(1H-Tetrazol-1-yl)acetyl]amino-1-(4-chloro-5-isoquinolinesulfonyl)pyrrolidine]: the inhibition in vivo at 3000 µM in assay [1] was in the range of 10 to 20%. The compound further displayed an IC50 in assay [2] of 1000 to 3000 nM.

Regarding `NCC1CN(S(=O)(=O)c2cccc3cncc(Cl)c23)C1` [Example 60, 3-(Aminomethyl)-1-(4-chloro-5-isoquinolinesulfonyl)azetidine], in assay [1], the inhibition in vivo at 3000 µM was in the range of 5 to 10%. In addition, the IC50 in assay [2] was 1000 to 3000 nM.

`Cc1cncc2cccc(S(=O)(=O)N3CC[C@H](NCCc4ccccc4)C3)c12` [Example 8-37]: the inhibition in vivo at 3000 µM in assay [1] was in the range of 5 to 10%. Also, the IC50 in assay [2] is under 1000 nM.

Take `N[C@H]1CCN(S(=O)(=O)c2cccc3c(O)ncc(Cl)c23)C1` [Example 30-1, (S)-3-Amino-1-(1-hydroxy-4-chloro-5-isoquinolinesulfonyl)pyrrolidine]: the inhibition in vivo at 3000 µM in assay [1] was at least 20%. Besides, in assay [2], the IC50 was under 1000 nM.

On to `O=C(COc1cccnc1)N[C@H]1CCN(S(=O)(=O)c2cccc3cncc(Cl)c23)C1` [Example 104, (S)-3-[2-(3-Pyridyloxy)acetyl]amino-1-(4-chloro-5-isoquinolinesulfonyl)pyrrolidine], for which, in assay [1], the inhibition in vivo at 3000 µM was at least 20%. In assay [2], the 50% inhibitory concentration (IC50) was 1000 to 3000 nM.

Take `N[C@@H]1CCN(S(=O)(=O)c2cccc3cncc(Br)c23)C1` [Example 1-2, (R)-3-Amino-1-(4-bromo-5-isoquinolinesulfonyl)pyrrolidine]: the inhibition in vivo at 3000 µM in assay [1] is at least 20%. In assay [2], this compound had a half-maximal inhibitory concentration (IC50) of under 1000 nM.

As to `Cc1cncc2cccc(S(=O)(=O)N3CCC[C@@H](N)C3)c12` [Example 22-2, (R)-3-Amino-1-(4-methyl-5-isoquinolinesulfonyl)piperidine], the inhibition in vivo at 3000 µM in assay [1] lay in the range of 10 to 20%. Further, the IC50 in assay [2] was under 1000 nM.

On to `CN[C@@H]1CCN(S(=O)(=O)c2cccc3c(O)ncc(Cl)c23)C1` [Example 36-2, (R)-1-(1-Hydroxy-4-chloro-5-isoquinolinesulfonyl)-3-(methylamino)pyrrolidine], for which the inhibition in vivo at 3000 µM in assay [1] lay in the range of 10 to 20%. Besides, the half-maximal inhibitory concentration (IC50) in assay [2] is 1000 to 3000 nM.

On to `NCC(=O)N[C@H]1CCN(S(=O)(=O)c2cccc3cncc(Cl)c23)C1` [Example 58-1, (S)-3-(2-Aminoacetyl)amino-1-(4-chloro-5-isoquinolinesulfonyl)pyrrolidine], for which the inhibition in vivo at 3000 µM in assay [1] was at least 20%. Moreover, the IC50 in assay [2] lay in the range of 1000 to 3000 nM.

For the compound `COc1ccc(CN[C@H]2CCN(S(=O)(=O)c3cccc4cncc(F)c34)C2)cc1` [Example 18-7], in assay [1], the inhibition in vivo at 3000 µM lay within 5 to 10%. Besides, the IC50 in assay [2] is under 1000 nM.

`Cc1cncc2cccc(S(=O)(=O)N3CC[C@H](NC4CCOCC4)C3)c12` [Example 8-31]: the inhibition in vivo at 3000 µM in assay [1] was 10 to 20%. The same compound came in with an IC50 in assay [2] of 1000 to 3000 nM.

With `O=C(N[C@H]1CCN(S(=O)(=O)c2cccc3cncc(Cl)c23)C1)C1COCCO1` (stereo partly drawn) [Example 109, N—[(S)-1-(4-Chloro-5-isoquinolinesulfonyl)pyrrolidin-3-yl]-1,4-dioxane-2-carboxamide], in assay [1], the inhibition in vivo at 3000 µM is at least 20%. The half-inhibitory concentration (IC50) in assay [2] fell in the range of 1000 to 3000 nM.

In the case of `CCN[C@H]1CCN(S(=O)(=O)c2cccc3cncc(C)c23)C1` [Example 8-4], the inhibition in vivo at 3000 µM in assay [1] lay within 10 to 20%. The same compound yielded an IC50 in assay [2] of under 1000 nM.

`Cc1cncc2cccc(S(=O)(=O)N3CCC[C@H](N)C3)c12` [Example 22-1, (S)-3-Amino-1-(4-methyl-5-isoquinolinesulfonyl)piperidine]: the inhibition in vivo at 3000 µM in assay [1] was in the range of 10 to 20%. This compound registered an IC50 in assay [2] of under 1000 nM.

Take `Cc1cncc2cccc(S(=O)(=O)N3CC[C@H](NC4CCCC4)C3)c12` [Example 8-29]: in assay [1], the inhibition in vivo at 3000 µM was 5 to 10%. In assay [2], the half-inhibitory concentration (IC50) lay in the range of 1000 to 3000 nM.

Take `O=C(CN1CCC1)N[C@H]1CCN(S(=O)(=O)c2cccc3cncc(Cl)c23)C1` [Example 114, (S)-3-[2-(Azetidin-1-yl)acetyl]amino-1-(4-chloro-5-isoquinolinesulfonyl)pyrrolidine]: in assay [1], the inhibition in vivo at 3000 µM lay within 5 to 10%. The same compound yielded an IC50 in assay [2] of 1000 to 3000 nM.

As to `C=Cc1cncc2cccc(S(=O)(=O)N3CC[C@H](N)C3)c12` [Example 9-1, (S)-3-Amino-1-(4-vinyl-5-isoquinolinesulfonyl)pyrrolidine], the inhibition in vivo at 3000 µM in assay [1] is at least 20%. In addition, in assay [2], the half-maximal inhibitory concentration (IC50) was under 1000 nM.

As to `O=C(COc1ccccc1)N[C@H]1CCN(S(=O)(=O)c2cccc3cncc(Cl)c23)C1` [Example 103, (S)-3-(2-Phenoxyacetyl)amino-1-(4-chloro-5-isoquinolinesulfonyl)pyrrolidine], the inhibition in vivo at 3000 µM in assay [1] was at least 20%. Moreover, in assay [2], the IC50 was in the range of 1000 to 3000 nM.

With `O=C(COC1CCOCC1)N[C@H]1CCN(S(=O)(=O)c2cccc3cncc(Cl)c23)C1` [Example 110, (S)-3-[[2-(Tetrahydro-2H-pyran-4-yloxy)]acetyl]amino-1-(4-chloro-5-isoquinolinesulfonyl)pyrrolidine], the inhibition in vivo at 3000 µM in assay [1] was at least 20%. Further, the IC50 in assay [2] fell in the range of 1000 to 3000 nM.

As for `Cc1cncc2cccc(S(=O)(=O)N3CC[C@H](NCC4CC4)C3)c12` [Example 8-26], the inhibition in vivo at 3000 µM in assay [1] lay within 5 to 10%. The IC50 in assay [2] was under 1000 nM.

In the case of `N[C@H]1CCN(S(=O)(=O)c2cccc3c(O)ncc(Br)c23)C1` [Example 7-1, (S)-3-Amino-1-(1-hydroxy-4-bromo-5-isoquinolinesulfonyl)pyrrolidine], the inhibition in vivo at 3000 µM in assay [1] was at least 20%. Moreover, the IC50 in assay [2] was under 1000 nM.

With `CNCC(=O)N[C@H]1CCN(S(=O)(=O)c2cccc3cncc(Cl)c23)C1` [Example 51-1, (S)-3-(2-Methylaminoacetyl)amino-1-(4-chloro-5-isoquinolinesulfonyl)pyrrolidine], in assay [1], the inhibition in vivo at 3000 µM lay in the range of 10 to 20%. Further, the half-inhibitory concentration (IC50) in assay [2] is 1000 to 3000 nM.
